Measurements as given in patent US20260167622A1, “PAN-KRAS DEGRADING AGENT, AND PREPARATION METHOD THEREFOR AND USE THEREOF” (LEADINGTAC PHARMACEUTICAL (SHAOXING) CO., LTD., priority 2022, published 2026).

Experiments:
[1] = molecular target: T1, Human KRAS G12V (Homo sapiens, UniProt P01116, G12V); test: KRAS-G12V/GTP binding assay (HTRF kit); conditions: 25° C., 1 h
T1 construct: purchased PerkinElmer
Procedure: Test Example 2: KRAS G12V Binding Assay
In this method, the inhibitory effects of the compounds on the binding of KRAS G12V to GTP were assayed by a homogeneous time-resolved fluorescence (HTRF) technique using a KRAS-G12V/GTP binding assay kit (PerkinElmer).
The experimental procedures were as follows (refer to the kit instructions for detailed test methods): the compounds of the present disclosure were each firstly dissolved in DMSO at a concentration of 20 mM, and then diluted in an equal gradient with a buffer in the kit, so that the final concentrations of the test compounds in the reaction system were in a range of 0.02-5000 nM, and the final concentration of DMSO was 0.5%. 5 μL of each compound was incubated with 5 μL of 1× Human KRAS G12V 6His-tagged (PerkinElmer), 5 µL of 1×6His Eu Cryptate Antibody (PerkinElmer), and 5 μL of 1×GTP Red reagent (PerkinElmer) in a 384-well plate (Greiner) at 25° C. for 1 h. After the incubation was completed, the fluorescence intensity of each well was measured at the excitation wavelength of 337 nm and the emission wavelengths of 620 nm and 665 nm with an EnVision microplate reader (PerkinElmer) in the HTRF mode, and Ratio values were calculated using the formula: Ratio=(665 nm/620 nm)×10^4. The inhibition rates of the compounds at each concentration were calculated by comparing the fluorescence intensity ratio with that of the control group. Then non-linear curve fittings for logarithmic concentration-inhibition rate were performed using the GraphPad Prism 8 analysis software, and the IC50 values of the compounds were obtained (Table 3).

[2] = molecular target: T2, KRAS G12V protein in SW900 cells (Homo sapiens, UniProt P01116, G12V); test: KRAS degradation assay (Western Blot) in SW900 cells; format: cell-based; conditions: 24 h
T2 construct: endogenous in cells; host or cells: SW900
T2 sequence (P01116 1-188 isoform P01116-2 G12V): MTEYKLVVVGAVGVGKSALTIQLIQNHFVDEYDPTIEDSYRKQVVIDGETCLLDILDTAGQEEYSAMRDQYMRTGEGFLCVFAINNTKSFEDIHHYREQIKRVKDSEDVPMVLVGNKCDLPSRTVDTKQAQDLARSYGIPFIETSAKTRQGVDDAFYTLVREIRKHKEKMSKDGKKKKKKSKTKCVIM
Summary of the method: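 DC50 and Dmax were fitted from KRAS band intensity, corrected to β-actin and expressed against untreated control, after Western blotting of 5 μg lysate protein. Cells were exposed for 24 h at 37 °C to 0.03-3000 nM compound (final) with 0.25% DMSO.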

[3] = system: KRAS G12D mutant human metastatic pancreatic cancer cell AsPc-1; test: 3D cell proliferation inhibition assay, AsPc-1; format: cell-based; conditions: ASPC1, 168 h, 3D culture, 7 days, CTG
Summary of the method: (§1)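 Cells were seeded in low-adsorption 96-well plates at 5×10^2 cells/well (MKN1 at 1×10^3) with compounds at final 10000-0.026 nM, 0.2% DMSO, and grown 7 days at 37° C. CTG luminescence gave inhibition relative to DMSO and medium-only controls, and IC50 came from a log-concentration curve fit.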

[4] = system: KRAS G12V mutant human lung squamous carcinoma cell SW900; test: 3D cell proliferation inhibition assay, SW900; format: cell-based; conditions: SW900, 168 h, 3D culture, 7 days, CTG
[5] = system: KRAS G12V mutant human colorectal cancer cell SW620; test: 3D cell proliferation inhibition assay, SW620; format: cell-based; conditions: SW-620, 168 h, 3D culture, 7 days, CTG
Summary of the method: as §1

[6] = system: KRAS WT human gastric cancer cell MKN1; test: 3D cell proliferation inhibition assay, MKN1; format: cell-based; conditions: MKN-1, 168 h, 3D culture, 7 days, CTG
Summary of the method: as §1

[7] = system: KRAS-G12D mutant cells; conditions: background, J. Med. Chem. 2022, 65, 3923-3942; cited from earlier work

T1 sequence (P01116 1-188 isoform P01116-2 G12V): as above

Row | IC50 [1] | DC50 [2] | Dmax [2] | SMILES | also measured
1 | ≤ 500 nM | ≤ 50 nM | 50 to 80% | C#Cc1c(F)ccc2cc(O)cc(-c3ncc4c(N5CCC[C@@](C)(O)C5)nc(OCC56CC(CN7CCN(CC8CCC9(CC8)CCN(C(=O)c8ccc(C)c(N%10CCC(=O)NC%10=O)c8)CC9)CC7)(C5)C6)nc4c3F)c12 [Example 14, (R)-1-(5-(9-((4-((3-(((7-(8-ethynyl-7-fluoro-3-hydroxynaphthalen-1-yl)-8-fluoro-4-(3-hydroxy-3-methylpiperidin-1-yl)pyrido[4,3-d]pyrimidin-2-yl)oxy)methyl)bicyclo[1.1.1]pent-1-yl)methyl)piperazin-1-yl)methyl)-3-azaspiro[5.5]undecane-3-carbonyl)-2-methylphenyl)dihydropyrimidine-2,4(1H,3H)-dione] | 
2 | ≤ 500 nM |  |  | C#Cc1c(F)ccc2cc(O)cc(-c3ncc4c(N5CCC[C@@](C)(O)C5)nc(OCC5(CN6CCN(C(=O)c7ccc(Cl)c(N8CCC(=O)NC8=O)c7)CC6)CC5)nc4c3F)c12 [Example 15, (R)-1-(2-chloro-5-(4-((1-(((7-(8-ethynyl-7-fluoro-3-hydroxynaphthalen-1-yl)-8-fluoro-4-(3-hydroxy-3-methylpiperidin-1-yl)pyrido[4,3-d]pyrimidin-2-yl)oxy)methyl)cyclopropyl)methyl)piperazine-1-carbonyl)phenyl)dihydropyrimidine-2,4(1H,3H)-dione] | 
3 | ≤ 500 nM |  |  | C#Cc1c(F)ccc2cc(O)cc(-c3ncc4c(N5CCC[C@@](C)(O)C5)nc(OCC5(CN6CCC7(CC6)CCN(C(=O)c6ccc(Cl)c(N8CCC(=O)NC8=O)c6)CC7)CC5)nc4c3F)c12 [Example 16, (R)-1-(2-chloro-5-(9-((1-(((7-(8-ethynyl-7-fluoro-3-hydroxynaphthalen-1-yl)-8-fluoro-4-(3-hydroxy-3-methylpiperidin-1-yl)pyrido[4,3-d]pyrimidin-2-yl)oxy)methyl)cyclopropyl)methyl)-3,9-diazaspiro[5.5]undecane-3-carbonyl)phenyl)dihydropyrimidine-2,4(1H,3H)-dione] | 
4 | ≤ 500 nM | ≤ 50 nM | 80 to 100% | C#Cc1cccc2cc(O)cc(-c3ncc4c(N5CCC[C@@](C)(O)C5)nc(OCC5(CN6CCN(CC7CCC8(CC7)CCN(C(=O)c7ccc(OC)c(N9CCC(=O)NC9=O)c7)CC8)CC6)CC5)nc4c3F)c12 [Example 29, (R)-1-(5-(9-((4-((1-(((7-(8-ethynyl-3-hydroxynaphthalen-1-yl)-8-fluoro-4-(3-hydroxy-3-methylpiperidin-1-yl)pyrido[4,3-d]pyrimidin-2-yl)oxy)methyl)cyclopropyl)methyl)piperazin-1-yl)methyl)-3-azaspiro[5.5]undecane-3-carbonyl)-2-methoxyphenyl)dihydropyrimidine-2,4(1H,3H)-dione] | IC50 [3]: ≤ 50 nM; IC50 [4]: ≤ 50 nM; IC50 [5]: 4.46 nM; IC50 [6]: ≤ 50 nM
5 | 500 to 1000 nM | ≤ 50 nM | 50 to 80% | C#Cc1c(F)ccc2cc(O)cc(-c3ncc4c(N(C)C5CC5)nc(OCC5(CN6CCN(CC7CCC8(CC7)CCN(C(=O)c7ccc(OC)c(N9CCC(=O)NC9=O)c7)CC8)CC6)CC5)nc4c3F)c12 [Example 30, 1-(5-(9-((4-((1-(((4-(cyclopropyl(methyl)amino)-7-(8-ethynyl-7-fluoro-3-hydroxynaphthalen-1-yl)-8-fluoropyrido[4,3-d]pyrimidin-2-yl)oxy)methyl)cyclopropyl)methyl)piperazin-1-yl)methyl)-3-azaspiroundecane-3-carbonyl)-2-methoxyphenyl)dihydropyrimidine-2,4(1H,3H)-dione] | 
6 | 500 to 1000 nM | ≤ 50 nM | 80 to 100% | Cc1ccc(C(=O)N2CCC3(CCC(CN4CCN(CC5(COc6nc(N7CCC[C@@](C)(O)C7)c7cnc(-c8cc(O)cc(Cl)c8C8CC8)c(F)c7n6)CC5)CC4)CC3)CC2)cc1N1CCC(=O)NC1=O [Example 40, (R)-1-(5-(9-((4-((1-(((7-(3-chloro-2-cyclopropyl-5-hydroxyphenyl)-8-fluoro-4-(3-hydroxy-3-methylpiperidin-1-yl)pyrido[4,3-d]pyrimidin-2-yl)oxy)methyl)cyclopropyl)methyl)piperazin-1-yl)methyl)-3-azaspiro[5.5]undecane-3-carbonyl)-2-methylphenyl)dihydropyrimidine-2,4(1H,3H)-dione] | 
7 |  |  |  | C#Cc1c(F)ccc2cc(O)cc(-c3ncc4c(N5CC6CCC(C5)N6)nc(OC[C@@]56CCCN5C[C@H](F)C6)nc4c3F)c12 [MRTX1133] | specificity for KRAS-G12D mutant cells over wild-type tumor cells [7]: more than 1000 times
